How the values were obtained:
[1] = system: IL6 release from the THP-1 acute leukemia cells; assay: IL6 release from LPS-treated THP-1 cells; type: cell-based; details: Homo sapiens, lipopolysaccharide treatment, then Compound 1 for 16 hours
Procedure: Compound 1 was assessed for its ability to suppress the expression of NF-κB target genes in two experiments. In one experiment, THP-1 acute leukemia cell lines were exposed to lipopolysaccharide treatment and then Compound 1 for 16 hours. […] In the other experiment, the ability of Compound 1 to suppress both IL6 and ILIO expression in TMD8 ABC-DLBCL cells was investigated (data on file). TMD8 cells were incubated with DMSO or 1.6 μM Compound 1 for 6 or 24 hours. RNA was then extracted from the cells and quantified using qRT-PCR.

[2] = system: patients with refractory or intolerant myelofibrosis already being administered Rux; assay: Phase 2 study, Arm 2 (Compound 1 add-on to ruxolitinib); type: in vivo, human
Procedure: A Phase 2 study of Compound 1 in subjects with myelofibrosis (MF) was conducted. Three treatment arms were studied: Arm 2=combination add-on treatment of Compound 1 in patients (pts) who are already being administered Rux. In this arm patients were further stratified based on transfusion dependence status [transfusion dependent (TD), defined as an average of >2 units per month over 12 wks, or non-TD cohorts]. The starting dose of Compound 1 was 125 mg daily on days 1-14 of a 21-day cycle in both arms. Primary endpoint: spleen volume response (SVR) for non-TD cohorts or TD to transfusion independence (TI, no transfusion for consecutive 12 wks) conversion for TD cohorts; secondary endpoints: change in total symptom score (TSS) per […]4.0, patient global impression of change (PGIC), safety and PK; additional endpoints: changes in proinflammatory Ck levels, BM morphology and mutant allele burden. The starting dose of Compound 1 was 125 mg given orally, once daily for 2 weeks on/1 week off in a 21-day dosing cycle. Two separate time points for data analysis occurred for at least Arms 1 and 2 and are discussed below: one at approximately 12 weeks of treatment (first assessment of spleen volume by MRI or CT and every 12 weeks thereafter) and another at approximately 24 weeks of treatment (first assessment of bone marrow biopsy and every 24 weeks thereafter). Patients were added to the study following the first time point. Patients were added to the study following the first data cut and treatment was continued for approximately 25.9 weeks (median, range: 0.4, 116.6).

[3] = Time Point 1, Compound 1 with ruxolitinib

SMILES: Cc1noc2c1-c1ccccc1C(c1ccc(Cl)cc1)=N[C@H]2CC(N)=O [Compound 1, 2-((4S)-6-(4-chlorophenyl)-1-methyl-4H-benzo[c]isoxazolo[4,5-e]azepin-4-yl)acetamide]
- IC50 [1]: 69 nM
- TD patients converted to TI [2, 3]: 4 patients
- duration of TI in 2 of the converted patients [2, 3]: > 36 wks
- patients with increase in hemoglobin by 1.5 mg/dL post-baseline ([2]; Time Point 1, Compound 1 with ruxolitinib, 4 of 25): 16%
- average spleen volume reduction ([2]; Time Point 2, 24 weeks, non-transfusion dependent at start, FIG. 12A): about −10.9%
- average spleen volume reduction ([2]; Time Point 2, 24 weeks, transfusion dependent at start): about −24.9%
- patients converted from transfusion dependent to transfusion independent ([2]; Time Point 2, 24 weeks, transfusion dependent at start, FIG. 10A): about 35%
- average time of conversion from TD to TI ([2]; Time Point 2, Arm 2): about 14 weeks
- average transfusion free time post-conversion ([2]; Time Point 2, Arm 2): about 14 weeks
- maximum transfusion free time post-conversion ([2]; Time Point 2, Arm 2): 85 weeks
- patients with greater than or equal to a 50% reduction in transfusion intensity ([2]; Time Point 2, Arm 2): About 41%
- patients with improvement in bone marrow fibrosis ([2]; Time Point 2, non-transfusion dependent at start): about 25%
- patients with improvement in disease symptoms per TSS ([2]; Time Point 2, non-transfusion dependent at start, FIG. 12B): About 38%
- patients with improved PGIC ([2]; Time Point 2, non-transfusion dependent at start, FIG. 12C): about 69%
- patients with improvement in disease symptoms per TSS ([2]; Time Point 2, transfusion dependent at start, FIG. 10B): About 76.5%
- patients with improved PGIC ([2]; Time Point 2, transfusion dependent at start, FIG. 10C): about 75%

Source: patent US12070464B2, “Methods of treating myeloproliferative disorders” (priority 2019, dated 2024)
